Laboratory results published in ChEMBL document CHEMBL1201862, “PubChem BioAssay data set” (2004).
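Step 1: Grow cells in 96-well plates. Step 2: Expose to compound for 48 hours at 5 concentrations. Step 3: Interpolate endpoints linearly; if unreached, use highest concentration. GI50 = concentration required for 50% inhibition of growth.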 Calls of active or inactive are those of the source. No stated cut-off is given here; in the data, active = GI50 up to about 1.1 µM and inactive = higher.

Assays:
Experiment in all cases: inhibition of tumour cell growth, NCI panel, 48 h
786-0 = test system: 786-0
ACHN = test system: ACHN
CAKI-1 = test system: CAKI-1
COLO 205 = test system: COLO 205
EKVX = test system: EKVX
HL-60 = test system: HL-60
K562 = test system: K562
Malme-3M = test system: Malme-3M
NCI-H226 = test system: NCI-H226
NCI-H522 = test system: NCI-H522
OVCAR-3 = test system: OVCAR-3
SK-MEL-5 = test system: SK-MEL-5
SNB-75 = test system: SNB-75
TK-10 = test system: TK-10
UACC-62 = test system: UACC-62
UO-31 = test system: UO-31
NCI-H23 = test system: NCI-H23

Structure (SMILES)	GI50 (786-0)	GI50 (ACHN)	GI50 (CAKI-1)	GI50 (COLO 205)	GI50 (EKVX)	GI50 (HL-60)	GI50 (K562)	GI50 (Malme-3M)	GI50 (NCI-H226)	GI50 (NCI-H522)	GI50 (OVCAR-3)	GI50 (SK-MEL-5)	GI50 (SNB-75)	GI50 (TK-10)	GI50 (UACC-62)	GI50 (UO-31)	GI50 (NCI-H23)
O=C(NCCCNCCNC(=O)c1cc(-c2ccccc2)nc2ccccc12)c1cc(-c2ccccc2)nc2ccccc12	1.79 µM (inactive)	1.79 µM (inactive)	2.26 µM (inactive)	1.72 µM (inactive)	2.16 µM (inactive)	1.59 µM (inactive)	1.94 µM (inactive)	1.88 µM (inactive)	2.32 µM (inactive)	1.75 µM (inactive)	1.97 µM (inactive)	1.64 µM (inactive)	1.51 µM (inactive)	1.66 µM (inactive)	2.22 µM (inactive)	1.86 µM (inactive)	–
CCCc1cc(COC)c(C#N)c(O)n1	> 100 µM (inactive)	> 100 µM (inactive)	> 100 µM (inactive)	> 100 µM (inactive)	> 100 µM (inactive)	> 100 µM (inactive)	> 100 µM (inactive)	> 100 µM (inactive)	17.5 µM (inactive)	> 100 µM (inactive)	> 100 µM (inactive)	> 100 µM (inactive)	–	> 100 µM (inactive)	> 100 µM (inactive)	> 100 µM (inactive)	> 100 µM (inactive)
CCc1nc(N)nc(N)c1-c1ccc2nnn(O)c2c1	> 100 µM (inactive)	> 100 µM (inactive)	> 100 µM (inactive)	> 100 µM (inactive)	> 100 µM (inactive)	> 100 µM (inactive)	76.2 µM (inactive)	–	> 100 µM (inactive)	> 100 µM (inactive)	> 100 µM (inactive)	> 100 µM (inactive)	> 100 µM (inactive)	> 100 µM (inactive)	> 100 µM (inactive)	> 100 µM (inactive)	> 100 µM (inactive)
COc1ccc2c3c1O[C@H]1C(=O)C=CC4(n5[nH]c(=O)n(-c6ccccc6)c5=O)C(C2)N(C)CCC314 (stereo partly drawn)	> 100 µM (inactive)	> 100 µM (inactive)	> 100 µM (inactive)	> 100 µM (inactive)	> 100 µM (inactive)	> 100 µM (inactive)	> 100 µM (inactive)	> 100 µM (inactive)	> 100 µM (inactive)	> 100 µM (inactive)	> 100 µM (inactive)	> 100 µM (inactive)	–	> 100 µM (inactive)	> 100 µM (inactive)	> 100 µM (inactive)	> 100 µM (inactive)
CN1C(=O)c2ccc3ccccc3c2C1=O	> 100 µM (inactive)	> 100 µM (inactive)	> 100 µM (inactive)	> 100 µM (inactive)	14 µM (inactive)	28.1 µM (inactive)	> 100 µM (inactive)	–	> 100 µM (inactive)	86.1 µM (inactive)	> 100 µM (inactive)	> 100 µM (inactive)	27.9 µM (inactive)	> 100 µM (inactive)	> 100 µM (inactive)	> 100 µM (inactive)	> 100 µM (inactive)
COc1ccc(Nc2nc(N)c(C(=O)c3ccco3)s2)cc1	> 40 µM (inactive)	47.8 µM (inactive)	50 µM (inactive)	13.4 µM (inactive)	> 58.3 µM (inactive)	5.04 µM (inactive)	4.72 µM (inactive)	> 90.2 µM (inactive)	33.9 µM (inactive)	7.71 µM (inactive)	20.6 µM (inactive)	14.5 µM (inactive)	–	10.8 µM (inactive)	45.8 µM (inactive)	29.3 µM (inactive)	> 61.4 µM (inactive)
Nc1nc(N)c2nc(CNc3ccc(C(=O)NC(CCC(=O)O)C(=O)O)cc3F)cnc2n1 (stereo not drawn)	< 0.01 µM (active)	< 0.01 µM (active)	< 0.01 µM (active)	> 48.2 µM (inactive)	< 0.01 µM (active)	< 0.01 µM (active)	< 0.01 µM (active)	–	> 100 µM (inactive)	< 0.01 µM (active)	45.1 µM (inactive)	< 0.0128 µM (active)	16.1 µM (inactive)	> 100 µM (inactive)	< 0.01 µM (active)	< 0.01 µM (active)	< 0.01 µM (active)
Cc1coc2c1C(OC(=O)C(C)C)C1(C)C(C)CCC(O)C1C2=O (stereo not drawn)	> 100 µM (inactive)	> 100 µM (inactive)	> 100 µM (inactive)	97.7 µM (inactive)	> 100 µM (inactive)	46 µM (inactive)	54 µM (inactive)	> 100 µM (inactive)	> 100 µM (inactive)	67.1 µM (inactive)	> 100 µM (inactive)	> 100 µM (inactive)	> 100 µM (inactive)	> 100 µM (inactive)	> 100 µM (inactive)	50.2 µM (inactive)	> 100 µM (inactive)
O=C1/C(=C/c2ccc([N+](=O)[O-])cc2)CNC/C1=C\c1ccc([N+](=O)[O-])cc1	1.13 µM (inactive)	12.3 µM (inactive)	1.79 µM (inactive)	5.62 µM (inactive)	9.86 µM (inactive)	0.0944 µM (active)	0.188 µM (active)	46.5 µM (inactive)	15 µM (inactive)	2.52 µM (inactive)	2.45 µM (inactive)	10.8 µM (inactive)	2.6 µM (inactive)	33.1 µM (inactive)	12.3 µM (inactive)	6.17 µM (inactive)	4.62 µM (inactive)
COC(=O)c1ccccc1C1CN=NC12Cc1cccc(C)c1C2=O (stereo not drawn)	90.4 µM (inactive)	35.3 µM (inactive)	46.1 µM (inactive)	> 10 µM (inactive)	65.6 µM (inactive)	24.7 µM (inactive)	53.1 µM (inactive)	43.7 µM (inactive)	49.7 µM (inactive)	27.3 µM (inactive)	22.1 µM (inactive)	34.4 µM (inactive)	33.3 µM (inactive)	65.9 µM (inactive)	34.7 µM (inactive)	20.8 µM (inactive)	51.9 µM (inactive)
CCOC(=O)Cn1c(C(F)(F)F)nc2nc(Cl)c(Cl)nc21	> 76.9 µM (inactive)	> 45.6 µM (inactive)	3.12 µM (inactive)	40 µM (inactive)	10.5 µM (inactive)	19.7 µM (inactive)	26.7 µM (inactive)	38.4 µM (inactive)	50 µM (inactive)	20.8 µM (inactive)	16.3 µM (inactive)	27.3 µM (inactive)	55.2 µM (inactive)	61.4 µM (inactive)	24.7 µM (inactive)	3.44 µM (inactive)	27 µM (inactive)
C=CCc1cccc2cc(C(=O)NCc3ccccc3)c(=N)oc12	29.1 µM (inactive)	19.9 µM (inactive)	37 µM (inactive)	40.6 µM (inactive)	26.1 µM (inactive)	25.3 µM (inactive)	> 100 µM (inactive)	19.4 µM (inactive)	24.2 µM (inactive)	18.1 µM (inactive)	20.7 µM (inactive)	25.5 µM (inactive)	31.3 µM (inactive)	–	22.8 µM (inactive)	–	31.9 µM (inactive)
CCOP(=O)(OCC)/C(=C/n1c(=S)[nH]c2ccccc21)C(=O)OC	> 100 µM (inactive)	> 100 µM (inactive)	> 100 µM (inactive)	> 100 µM (inactive)	> 100 µM (inactive)	> 100 µM (inactive)	> 100 µM (inactive)	> 100 µM (inactive)	> 100 µM (inactive)	> 100 µM (inactive)	0.0311 µM (active)	> 100 µM (inactive)	34.4 µM (inactive)	–	> 100 µM (inactive)	–	> 100 µM (inactive)
O=C([O-])C(O)C(O)C(O)C(O)C(=O)O.[K+] (stereo not drawn)	> 100 µM (inactive)	> 100 µM (inactive)	> 100 µM (inactive)	> 100 µM (inactive)	> 100 µM (inactive)	76.2 µM (inactive)	> 100 µM (inactive)	> 100 µM (inactive)	> 100 µM (inactive)	> 100 µM (inactive)	> 100 µM (inactive)	> 100 µM (inactive)	> 100 µM (inactive)	–	> 100 µM (inactive)	> 100 µM (inactive)	> 100 µM (inactive)
CC(C)(C)O/N=C/c1cc(NC(=S)c2ccccc2)ccc1Cl	14.3 µM (inactive)	16.4 µM (inactive)	29.3 µM (inactive)	14.3 µM (inactive)	15.2 µM (inactive)	16.3 µM (inactive)	–	19 µM (inactive)	16.8 µM (inactive)	11.3 µM (inactive)	16.3 µM (inactive)	21 µM (inactive)	–	12.2 µM (inactive)	14.6 µM (inactive)	12.8 µM (inactive)	15.6 µM (inactive)
CC1=NN2CCC(=O)N=C2S1	> 100 µM (inactive)	> 100 µM (inactive)	> 100 µM (inactive)	> 100 µM (inactive)	> 100 µM (inactive)	> 100 µM (inactive)	> 100 µM (inactive)	> 100 µM (inactive)	> 100 µM (inactive)	> 100 µM (inactive)	> 100 µM (inactive)	> 100 µM (inactive)	> 100 µM (inactive)	> 100 µM (inactive)	> 100 µM (inactive)	–	> 100 µM (inactive)
CSC1(SC)CCCCCCCCCCC1	37.1 µM (inactive)	34.2 µM (inactive)	58.1 µM (inactive)	19.2 µM (inactive)	39 µM (inactive)	46.3 µM (inactive)	32 µM (inactive)	25.5 µM (inactive)	> 100 µM (inactive)	16.3 µM (inactive)	27.8 µM (inactive)	35.2 µM (inactive)	–	90.2 µM (inactive)	46 µM (inactive)	31.3 µM (inactive)	68.9 µM (inactive)
